Data reported in patent publication US11149008B2, “Sulfamide derivatives and preparation method and use thereof” (HitGen Ltd., priority 2015, dated 2021).

Tests used:
HepG2 cells = experiment: Cell growth inhibition measurement (CCK-8), HepG2; assay type: cell-based; details: Homo sapiens, HepG2, 72 h, highest EC50 measured during one or multiple operations, read-out: Inhibition activity against cancer cells, HepG2 (EC50)
Text: A HepG2 cell strain and an HCT-116 cell strain were purchased from Shanghai Institutes for Biological Sciences; a DMEM high-sugar culture medium and an MEM culture medium were purchased from Hyclone; fetal calf serum was purchased from Gibco; trypsin was purchased from Invitrogen Shanghai; a CCK-8 kit was purchased from Beyotime Institute of Biotechnology; and, the remaining cell culture mediums and other consumables were purchased from Corning China.
HepG2 cells and HCT-116 cells in the logarithmic growth phase were digested by trypsin. After the counting of uniform cell suspension, the cell density was adjusted as 1500 cells/well by a culture medium containing 10% serum. The cells were re-inoculated to a 96-well cell culture plate, and cultured to a volume of 200 μL at 37° C. in an incubator containing 5% CO2. The cells could be tested after being cultured for 24 h.
The cells cultured for 24 h were taken out from the incubator. The culture liquid in the well plate was sucked out, and 200 μL of compound solution prepared in the culture medium containing 10% fetal calf serum was added in each well. Five parallel mediums were provided for each concentration, and a DMSO culture medium was used as negative control. The culture mediums were cultured for 72 h at 37° C. in an incubator containing 5% CO2, and CCK-8 detection was performed.
A serum-free culture medium and CCK-8 solution were prepared, and CCK-8 working solution was prepared at a ratio of 10:1 (this process should be performed in dark place).
The cells cultured for 72 h were taken out from the incubator. The culture liquid in the well plate was sucked out, and 120 μL of the CCK-8 working solution was added in each well. A well plate without cells was also added with 120 μL of the CCK-8 working solution to serve as blank control. The well plates were cultured for 1 h at 37° C. in an incubator containing 5% CO2 (this process should be performed in dark place).
The well plates were taken out from the incubator, 100 μL of solution in each well was sucked out and added in a new 96-well plate, and the absorbance was measured at 450 nm (this process should be performed in dark place).
where Tx is the absorbance of the CCK-8 after the compound acts for 72 h;
C is the absorbance of the CCK-8 after the negative control wells are cultured for 72 h; and
B is the absorbance of the CCK-8 in the blank control wells.
The test results of the compounds prepared according to the embodiments during the measurement are shown in Table 3, wherein the measured highest EC50 of the compounds during one operation or multiple operations is classified according to the following description: […]

HDAC 6 = molecular target: T1, HDAC 6 (Homo sapiens, UniProt Q9UBN7); experiment: Enzyme activity detection of histone deacetylase 6 (fluorogenic substrate deacetylation); assay type: biochemical; details: 0.35 ng/μL HDAC 6, 20 μM substrate, 30 min at 37° C.; IC50 class
T1 construct: purchased BPS Bioscience #50076
T1 sequence (Q9UBN7 1-1215): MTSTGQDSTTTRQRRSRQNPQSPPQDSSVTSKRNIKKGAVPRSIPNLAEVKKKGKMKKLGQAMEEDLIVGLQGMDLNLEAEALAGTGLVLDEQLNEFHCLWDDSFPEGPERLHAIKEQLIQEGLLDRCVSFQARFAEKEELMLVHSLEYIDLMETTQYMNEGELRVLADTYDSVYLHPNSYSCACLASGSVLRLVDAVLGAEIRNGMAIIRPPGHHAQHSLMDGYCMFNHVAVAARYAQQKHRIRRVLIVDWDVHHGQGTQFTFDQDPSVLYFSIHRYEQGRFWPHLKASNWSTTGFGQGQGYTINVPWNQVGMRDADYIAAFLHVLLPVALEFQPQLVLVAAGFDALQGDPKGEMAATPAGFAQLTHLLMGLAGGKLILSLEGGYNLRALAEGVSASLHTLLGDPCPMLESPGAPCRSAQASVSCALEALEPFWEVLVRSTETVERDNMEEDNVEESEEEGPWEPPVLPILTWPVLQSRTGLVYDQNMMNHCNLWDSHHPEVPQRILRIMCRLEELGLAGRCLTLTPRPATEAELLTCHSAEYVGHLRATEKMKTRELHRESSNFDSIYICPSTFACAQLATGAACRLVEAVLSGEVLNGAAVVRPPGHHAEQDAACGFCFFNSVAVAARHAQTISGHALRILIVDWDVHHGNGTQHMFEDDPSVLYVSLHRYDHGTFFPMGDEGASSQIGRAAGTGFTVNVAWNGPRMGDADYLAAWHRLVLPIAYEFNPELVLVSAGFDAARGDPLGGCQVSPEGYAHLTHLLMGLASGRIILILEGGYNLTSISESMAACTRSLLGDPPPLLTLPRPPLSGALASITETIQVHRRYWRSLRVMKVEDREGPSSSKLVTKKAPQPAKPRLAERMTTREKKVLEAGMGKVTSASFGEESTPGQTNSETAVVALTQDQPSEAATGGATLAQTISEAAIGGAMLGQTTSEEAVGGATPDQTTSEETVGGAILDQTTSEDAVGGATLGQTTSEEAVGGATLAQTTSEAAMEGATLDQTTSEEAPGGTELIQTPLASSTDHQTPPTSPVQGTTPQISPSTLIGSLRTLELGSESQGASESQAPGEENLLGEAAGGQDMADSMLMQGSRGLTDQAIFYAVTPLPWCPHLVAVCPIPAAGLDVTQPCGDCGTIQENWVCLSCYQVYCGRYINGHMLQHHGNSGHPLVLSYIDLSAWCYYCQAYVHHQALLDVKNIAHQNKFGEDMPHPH
Text: During the deacetylation detection of a substrate, the HDAC inhibition activity of the compound of the present invention was detected.
A: Enzyme Activity Detection of Histone Deacetylase 6 (#50076, BPS Bioscience)
Acetyl on the substrate was removed by the HDAC 6, so that the substrate was activated, and the developing liquid added subsequently could act on the substrate to release the fluorescent group. The size of the fluorescence signal reflected the activity of the HDAC 6. The IC50 detection method for this enzyme was disclosed in Chuping Xu, Elisabetta Soragni Improved Histone Deacetylase Inhibitors as Therapeutics for the Neurdegenerative Disease Friedreich's Ataxia: A New Synthetic Route. The total reaction system (100 μL/well) contained 0.35 ng/μL of HDAC 6, 20 μM of the substrate and the compound in different concentrations. The reaction system was incubated for 30 min at 37° C., and the fluorescence signal was then measured. The inhibition effect of the compound was determined from the obtained data, a concentration response curve was obtained by using the inhibition effect and the concentration of the compound, and the value of IC50 was fitted according to a four-parameter model.
The activities of the compounds prepared in the embodiments against the histone deacetylases 1, 3 and 6 (i.e., HDAC 1, HDAC 3 and HDAC 6) were detected by the above methods, and the test results were shown in Table 2, where the measurements of IC50 of the compounds were classified according to the following description: […]

EC50 (HepG2 cells): < 100 nM
IC50 (HDAC 6): < 100 nM
SMILES: CN1CCN(c2ccc(-c3ccc(S(=O)(=O)N4CC=C(C(=O)NO)CC4)cc3)cc2)CC1 [Compound 29, N-hydroxyl-1-((4′-(4-methylpiperazinyl)-[1,1′-biphenyl]-4-yl)sulfonyl)-1,2,3,6-tetrahydropyridine-4-formamide]
